Data from paper PMC11726677, “Eradication of Therapy-Resistant Cancer Stem Cells by Novel Telmisartan Derivatives” (Journal of Medicinal Chemistry, 2024).
pEC50: −log10 of the molar value. Where “and” joins values, the source holds several entries; their conditions need not be identical. Equal values may be shown once.

What was measured:
[1] = test system: K562-R cells; experiment: Chemosensitizing: metabolic activity of K562-R cells cotreated with imatinib (modified MTT assay); type: cell-based, human; conditions: 72 h
Experimental: (§1) The potential reduction in cell viability was determined using the modified MTT assay.
conc. 10 to 0.5 μM) over 72 h (Figure 3D).
(§2) COS-7 (2 × 10^3 cells per well), IGROV-1 SP (2.5 × 10^3 cells per well), A2780 V SP (1.5 × 10^3 cells per well), PC3-DR (4 × 10^3 cells per well), and DU145-DR (3 × 10^3 cells per well) cells were seeded in 96-well plates in triplicates and after 24 h, the compounds were added at the respective concentrations. K562-R and K562 cells (2 × 10^4 cells per well), were treated with the compounds 2 h after seeding. […] A modified MTT colorimetric assay (EZ4U kit, Biomedica) was used to determine the metabolic activity of the tested cells, according to the manufacturer’s instructions. Absorbance was measured and the optical density of the respective FCS-containing medium and of the substrate was subtracted to exclude nonspecific staining. Metabolic activity in the absence of the compounds (CTR, DMSO) was set to 100% as reference.

[2] = target: ABCB1 transporter in K562-R cells (Homo sapiens, UniProt P08183); experiment: Side population (SP) analysis, DCV staining, flow cytometry; conditions: 10 μM
Experimental: SP analyses were performed as previously described[45] on a LSRFortessa flow cytometer (BD Biosciences, Vienna, Austria). Briefly, 1 × 10^6 cells/mL were stained with 10 μM Vybrant DyeCycleTM Violet (DCV; Molecular Probes, Eugene, OR) in the presence or absence of the investigated compounds for 90 min at 37 °C. […] Subsequently, the cells were washed and immediately analyzed using flow cytometry. The FlowJo 9.6 software was used for data analyses (Tree Star Software, Ashland, CA).

[3] = test system: K562-R cells; experiment: Metabolic activity of K562-R cells, compounds alone (modified MTT assay); type: cell-based, human; conditions: Homo sapiens, K-562R, 72 h; read-out: metabolic activity of K562-R cells, compound alone
Experimental: as §1
First, the compounds (10 μM) were applied alone to evaluate their effects per se.
as §2

[4] = test system: K562 cells; experiment: Metabolic activity of TKI-sensitive K562 cells (MTT assay); type: cell-based, human; conditions: 10 μM, 72 h, alone
Experimental: Selectivity for therapy-resistant K562-R cells can be assessed by comparing the results with TKI-sensitive K562 cells.
as §2

[5] = test system: ABCB1; experiment: Jess Simple Western immunoassay of ABCB1 expression in K562-R cells; type: cell-based, human; conditions: 4 μM, 72 h
Experimental: (§3) Protein extracts were prepared as previously described.[44] Protein expression was determined using the capillary-based Jess Simple Western detection system (ProteinSimple, BioTechne) according to the manufacturer’s instructions at default settings. […] Horseradish peroxidase (HRP)-conjugated secondary antirabbit antibody, which was included in the Jess Detection Module kit, was used. Data analysis was conducted using Compass for Simple Western 4.0 software (ProteinSimple, BioTechne).

[6] = test system: STAT5; experiment: Jess Simple Western immunoassay of STAT5/pSTAT5 in K562-R cells; type: cell-based, human
Experimental: In the next step, the effects of the compounds (4 μM) on STAT5 in K562-R cells were examined.
as §3

[7] = test system: ABCB1; design: method as in Weiss et al. 38; conditions: ref Weiss et al. 38; cited from earlier work
[8] = test system: PC3-DR cells; experiment: Chemosensitizing to docetaxel: metabolic activity of PC3-DR cells (MTT); type: cell-based, human; conditions: DTX 12.5 nM, 72 h, compared to solvent control
Experimental: (§4) The chemosensitizing efficacy was investigated in the ovarian and prostate cancer cell lines using the above-described metabolic activity assay. Paclitaxel (PTX) served as a reference (CTR) in A2780 V SP and IGROV-1 SP cells and docetaxel (DTX) in PC3-DR and D145-DR cells.
as §2

[9] = test system: DU145-DR cells; experiment: Chemosensitizing to docetaxel: metabolic activity of DU145-DR cells (MTT); type: cell-based, human; conditions: DTX 12.5 nM, 72 h, compared to solvent control
Experimental: as §4, §2

[10] = test system: human CML K562-R xenograft; experiment: Efficacy in human CML K562-R xenograft model; type: in vivo, female NOD/SCID mice; design: % T/C (treatment/control) / % TGI (tumor growth inhibition): concentration or dose not given beside the values; conditions: for % TGI (tumor growth inhibition): vs vehicle control
Experimental: The animals were checked daily for humane end points. Body weight was measured and recorded daily after dosing.
The % T/C value, defined as the ratio of the mean tumor volume for the treated versus control group, was calculated as % T/C = (Tn/Cn) × 100%; whereas Tn: denotes mean tumor volume of the treated group on day n, and Cn: denotes mean tumor volume of the control group on day n. The optimal value is the minimal % T/C ratio, which reflects the maximal tumor growth inhibition achieved.
TGI (Tumor growth inhibition) was calculated by the following formula [drawing 1] [drawing 2]
Whereas: Tn: denotes the mean tumor volume of the treated group on day n; T1: denotes the mean tumor volume of the treated group on day 1; Cn: denotes the mean tumor volume of the vehicle control group on day n; and C1: denotes the mean tumor volume of the vehicle control group at day 1.

[11] = test system: K562-R cells; experiment: Metabolic activity of K562-R cells, compounds alone (modified MTT assay); type: cell-based, human; conditions: imatinib 1 μM, 72 h; compared to the 100% solvent control
[12] = Body weight / tolerability in the K562-R xenograft study; conditions: 7c 10 mg/kg, imatinib 50 mg/kg, PO QD × 30 days

ABCB1 transporter in K562-R cells, sequence (P08183 whole entry): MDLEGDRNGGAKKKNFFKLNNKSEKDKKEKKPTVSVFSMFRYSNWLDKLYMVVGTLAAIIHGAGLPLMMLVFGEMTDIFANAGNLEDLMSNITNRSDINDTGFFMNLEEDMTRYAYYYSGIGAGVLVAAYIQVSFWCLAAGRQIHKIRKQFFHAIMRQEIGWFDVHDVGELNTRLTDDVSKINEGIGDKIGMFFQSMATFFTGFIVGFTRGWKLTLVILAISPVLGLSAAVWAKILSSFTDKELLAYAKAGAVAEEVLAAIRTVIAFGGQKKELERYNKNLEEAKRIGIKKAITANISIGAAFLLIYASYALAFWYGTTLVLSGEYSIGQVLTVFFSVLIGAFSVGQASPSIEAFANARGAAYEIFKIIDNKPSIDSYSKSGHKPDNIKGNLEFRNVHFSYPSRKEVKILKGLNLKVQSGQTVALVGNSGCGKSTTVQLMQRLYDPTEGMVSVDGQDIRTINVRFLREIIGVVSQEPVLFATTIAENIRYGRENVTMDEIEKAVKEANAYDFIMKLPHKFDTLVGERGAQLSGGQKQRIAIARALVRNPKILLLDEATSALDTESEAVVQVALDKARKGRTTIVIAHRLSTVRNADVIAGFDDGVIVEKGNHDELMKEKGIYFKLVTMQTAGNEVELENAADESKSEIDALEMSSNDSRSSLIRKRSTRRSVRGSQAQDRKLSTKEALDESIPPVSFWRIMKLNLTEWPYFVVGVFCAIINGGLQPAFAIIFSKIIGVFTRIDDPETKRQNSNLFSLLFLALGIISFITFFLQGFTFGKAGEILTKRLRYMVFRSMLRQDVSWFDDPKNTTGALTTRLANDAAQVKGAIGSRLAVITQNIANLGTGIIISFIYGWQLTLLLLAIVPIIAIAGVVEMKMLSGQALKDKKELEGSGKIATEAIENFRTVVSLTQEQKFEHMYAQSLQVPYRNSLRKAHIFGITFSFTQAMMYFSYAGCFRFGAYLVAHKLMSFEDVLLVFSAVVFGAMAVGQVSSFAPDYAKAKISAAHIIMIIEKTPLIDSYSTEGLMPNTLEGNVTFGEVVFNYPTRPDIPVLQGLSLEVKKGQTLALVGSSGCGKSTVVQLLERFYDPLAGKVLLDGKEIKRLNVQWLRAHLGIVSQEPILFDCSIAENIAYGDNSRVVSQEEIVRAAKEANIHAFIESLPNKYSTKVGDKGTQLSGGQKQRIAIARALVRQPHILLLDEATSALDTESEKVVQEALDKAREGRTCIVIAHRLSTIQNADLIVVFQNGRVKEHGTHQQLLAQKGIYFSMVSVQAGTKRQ

For `CCCc1nc2ccccc2n1Cc1ccc(C(=O)OC)cc1` [3b, Methyl 4-((2-propyl-1H-benzo[d]imidazole-1-yl)methyl)benzoate], the “metabolic activity of K562-R cells, combination with imatinib” value (from here on “metabolic activity … with imatinib”) ([1]; compound 8 μM + imatinib 1 μM) was 44–57%, the “metabolic activity … with imatinib” value ([1]; compound 10 μM + imatinib 1 μM) was 34–58% and the “effect on SP phenotype / ABCB1 activity” value [2] was “had no significant impact on the SP”.

In the case of `CCCc1nc2ccccc2n1Cc1ccc(-c2ccccc2C(=O)OC)cc1` [4b, Methyl 4′-((2-propyl-1H-benzo[d]imidazole-1-yl)methyl)-[1,1′-biphenyl]-2-carboxylate], the viability at 10 µM [3] was under 70%, the pEC50 ([1]; K562-R, + imatinib 1 μM, read-out: SC50 (drug concentration eliciting 50% of the maximum sensitizing effect)) was 5.91 and the “metabolic activity … with imatinib” value ([1]; compound 10 μM + imatinib 1 μM) was 8–24%. For the same molecule, the “metabolic activity of K562 cells” value [4] was at least 65%, the ABCB1 protein expression [5] was “none of the compounds abrogated the ABCB1 protein expression” and the “phosphorylation of STAT5” value ([6]; 4 μM + imatinib 1 μM, 6 h) was “hardly triggered any change in the expression of pSTAT5”. For the same molecule, the “phosphorylation of STAT5” value ([6]; 4 μM alone, 72 h) was “prevented the activation of STAT5”, the “effect on SP phenotype / ABCB1 activity” value [2] was “efficiently reduced the ABCB1 activity” and the “relation of SP and NSP” value [2] was “about 50%”.

For `CCCCC1=NC2(CCCC2)C(=O)N1Cc1ccc(-c2ccccc2-c2nnn[nH]2)cc1` [irbesartan], the “inhibition of ABCB1” value [7] is listed as “only slightly”.

With `CC(=O)O[C@@]12CO[C@@H]1C[C@H](O)[C@@]1(C)C(=O)[C@H](O)C3=C(C)[C@@H](OC(=O)[C@H](O)[C@@H](NC(=O)OC(C)(C)C)c4ccccc4)C[C@@](O)([C@@H](OC(=O)c4ccccc4)[C@H]21)C3(C)C` [DTX, docetaxel, reference compound] the “metabolic activity of treated cells, DTX alone” value [8] was over 80% and the “metabolic activity of treated cells, DTX alone” value [9] was over 80%.

For `CCCc1nc2ccccc2n1Cc1cccc(C(=O)OC)c1` [2b, Methyl 3-((2-propyl-1H-benzo[d]imidazole-1-yl)methyl)benzoate], the viability at 10 µM [3] was under 70%, the “metabolic activity … with imatinib” value ([1]; compound 8 μM + imatinib 1 μM) was 44–57% and the “metabolic activity … with imatinib” value ([1]; compound 10 μM + imatinib 1 μM) was 34–58%. For the same molecule, the “effect on SP phenotype / ABCB1 activity” value [2] was “had no significant impact on the SP”.

For `CCCc1nc2ccccc2n1Cc1ccc(-c2cccc(C(=O)OC)c2)cc1` [5b, Methyl 4′-((2-propyl-1H-benzo[d]imidazole-1-yl)methyl)-[1,1′-biphenyl]-3-carboxylate], the viability at 10 µM [3] was under 70%, the “metabolic activity … with imatinib” value ([1]; compound 10 μM + imatinib 1 μM) was 34–58% and the “metabolic activity of K562 cells” value [4] was at least 65%.

For `CCCc1nc2ccccc2n1Cc1ccccc1C(=O)OC` [1b, Methyl 2-((2-propyl-1H-benzo[d]imidazole-1-yl)methyl)benzoate], the viability at 10 µM [3] was under 70%, the “metabolic activity … with imatinib” value ([1]; compound 8 μM + imatinib 1 μM) was 44–57% and the “metabolic activity … with imatinib” value ([1]; compound 10 μM + imatinib 1 μM) was 34–58%. The ABCB1 protein expression [5] was “none of the compounds abrogated the ABCB1 protein expression”, the “phosphorylation of STAT5” value ([6]; 4 μM + imatinib 1 μM, 6 h) was “hardly triggered any change in the expression of pSTAT5” and the “phosphorylation of STAT5” value ([6]; 4 μM alone, 72 h) was “prevented the activation of STAT5”. The “effect on SP phenotype / ABCB1 activity” value [2] was “had no significant impact on the SP”.

In the case of `Cc1ccc(NC(=O)c2ccc(CN3CCN(C)CC3)cc2)cc1Nc1nccc(-c2cccnc2)n1` [Imatinib, imatinib, reference compound], the “% TGI (tumor growth inhibition)” value ([10]; Day 5) was 76%, the “% TGI (tumor growth inhibition)” value ([10]; Day 8) was 54% and the “% TGI (tumor growth inhibition)” value ([10]; Day 12) was 50%. For the same molecule, the “% TGI (tumor growth inhibition)” value ([10]; Day 15) was 66%, the “% TGI (tumor growth inhibition)” value ([10]; Day 19) was 57% and the “% TGI (tumor growth inhibition)” value ([10]; Day 22) was 57%. For the same molecule, the “% TGI (tumor growth inhibition)” value ([10]; Day 26) was 56%, the “% TGI (tumor growth inhibition)” value ([10]; Day 29) was 55% and the “% TGI (tumor growth inhibition)” value ([10]; Day 33) was 59%. For the same molecule, the “Tumor Weight, individual animal” value ([10]; harvested on day 33, animals No. 1–7) was 4.442 g and 0.194 g and 0.080 g and 0.082 g and 0.351 g and 3.076 g and 0.081 g, the “Tumor Weight, group mean” value ([10]; harvested on day 33, n = 7) was 1.200 g and the “metabolic activity of K562-R cells, imatinib alone” value [11] was 73%. For the same molecule, the tolerability [12] was “well tolerated”.
